Each block holds one compound with its values, some of them ahead of it.
Experiment: solvent given as SMILES

SMILES: CN(C)c1ccc(/C=C/c2ccc(-c3nnc(-c4ccc(-c5cc6ccccc6s5)cc4)o3)cc2)cc1
emission maximum (in CC#N): 397 nm
emission maximum (in CC(C)=O): 395 nm
emission maximum (in CCCCCCCC): 387 nm
emission maximum (in CCCCCCCCCCO): 394 nm
emission maximum (in CCCCCCCCO): 398 nm
emission maximum (in CCCCCO): 399 nm
emission maximum (in CCCO): 399 nm
emission maximum (in CN(C)C=O): 401 nm
emission maximum (in CO): 404 nm
emission maximum (in CS(C)=O): 408 nm

SMILES: CN(C)c1ccc2c3c(ccc2c1)CCCC3=O
emission maximum (in C1CCCCC1): 449 nm
emission maximum (in CC#N): 523 nm
emission maximum (in CC(C)O): 520 nm
emission maximum (in CCC(C)=O): 517 nm
emission maximum (in CCO): 495 nm
emission maximum (in CCOC(C)=O): 506 nm
emission maximum (in CS(C)=O): 538 nm
emission maximum (in Cc1ccccc1): 478 nm
emission maximum (in ClCCl): 511 nm
emission maximum (in Clc1ccccc1): 498 nm

SMILES: Cc1ccc2c(c1)C1(c3ccccc3-c3ccccc31)c1cc(C)ccc1N2c1ccc(-c2nc(-c3ccccc3)cc(-c3ccccc3)n2)cc1
emission maximum (in Cc1ccccc1): 458 nm
emission maximum (in O=P(c1ccccc1)(c1ccccc1)c1ccc2oc3ccc(P(=O)(c4ccccc4)c4ccccc4)cc3c2c1): 464 nm

SMILES: CCCCc1ccc2c(c1)c1cc(CCCC)ccc1n2-c1ccc(S(=O)(=O)c2ccc(S(=O)(=O)c3ccc(-n4c5ccc(CCCC)cc5c5cc(CCCC)ccc54)cc3)cc2)cc1
emission maximum (in Cc1ccccc1): 450 nm
emission maximum (in c1cc(-n2c3ccccc3c3ccccc32)nc(-n2c3ccccc3c3ccccc32)c1): 467.24 nm

SMILES: CC(C)=CC(=O)c1cc2c(cc1F)NC(C)(C)CC2=O
emission maximum (in CC#N): 422 nm
emission maximum (in CCO): 459 nm

SMILES: O=S(=O)(c1ccccc1)c1ccc(-c2ccc3c(c2)c2cc(-c4ccc(S(=O)(=O)c5ccccc5)cc4)ccc2n3-c2ccccc2)cc1
emission maximum (in CCCCCC): 377 nm
emission maximum (in CN(C)C=O): 431 nm
emission maximum (in CO): 434 nm
emission maximum (in Cc1ccccc1): 381 nm
emission maximum (in ClCCl): 395 nm

SMILES: C1=C(c2ccc(-c3cccs3)s2)CCCC1
emission maximum (in C1CCOC1): 423 nm
emission maximum (in CC#N): 415 nm
emission maximum (in CCCCCC): 411 nm
emission maximum (in CCO): 445 nm
emission maximum (in OCCOCCO): 446 nm
emission maximum (in c1ccncc1): 423 nm

SMILES: COC(=O)/C(C#N)=c1\s/c(=c2/s/c(=C(/C#N)C(=O)OC)c3cc(-c4ccc5c(c4)C(C)(C)c4ccccc4-5)sc23)c2sc(-c3ccc4c(c3)C(C)(C)c3ccccc3-4)cc12
emission maximum (in Cc1ccccc1): 682 nm

SMILES: CCC1=C(C)C2=Cc3cscc3B(O)N2C1=O
emission maximum (in CC#N): 412 nm
emission maximum (in CCCCCC): 396 nm
emission maximum (in CO): 418 nm
emission maximum (in CS(C)=O): 425 nm
emission maximum (in ClC(Cl)Cl): 414 nm

SMILES: COc1ccc(-c2nc(-c3ccccc3)c(N(C)C)[se]2)cc1
emission maximum (in ClC(Cl)Cl): 438 nm

SMILES: COc1ccc(N(c2ccccc2)c2ccc(OC)cc2)cc1
emission maximum (in Cc1ccccc1): 387 nm

SMILES: C=Cc1cccc(OC)c1
emission maximum (in C1CCCCC1): 327 nm
emission maximum (in CC#N): 330 nm

SMILES: CC1(C)CC(/C=C/c2ccc(-n3ccnc3)cc2)=CC(=C(C#N)C#N)C1
emission maximum (in C1CCOC1): 524 nm
emission maximum (in CC#N): 526 nm
emission maximum (in CCO): 520 nm
emission maximum (in CCOC(C)=O): 518 nm
emission maximum (in ClCCl): 504 nm
emission maximum (in c1ccccc1): 511 nm

SMILES: CCCCOC(=O)c1cc(Cl)c2c3c(Cl)cc4c5c(cc(Cl)c(c6c(Cl)cc(C(=O)OCCCC)c1c26)c53)C(=O)N(c1c(C(C)C)cccc1C(C)C)C4=O
emission maximum (in Cc1ccccc1): 530 nm

SMILES: Fc1nc(F)c(F)c(C#Cc2nccnc2C#Cc2c(F)c(F)nc(F)c2F)c1F
emission maximum (in CC#N): 440 nm

SMILES: C#CC1CN2CCC1CC2[C@@H](O)c1ccnc2ccc(OC)cc12 (some centres not stated)
emission maximum (in C1CCOC1): 361 nm
emission maximum (in CC#N): 358 nm
emission maximum (in CCCC#N): 359 nm
emission maximum (in Cc1ccccc1): 360 nm
emission maximum (in ClCCl): 363 nm

SMILES: CC(C)CCCCN1CCc2c1ccc1c3c(ccc21)C(=O)CCC3
emission maximum (in C1CCCCC1): 433 nm
emission maximum (in CC#N): 489 nm
emission maximum (in CC(C)O): 512 nm
emission maximum (in CCC(C)=O): 481 nm
emission maximum (in CCO): 522 nm
emission maximum (in CCOC(C)=O): 467 nm
emission maximum (in CS(C)=O): 472 nm
emission maximum (in Cc1ccccc1): 452 nm
emission maximum (in ClCCl): 472 nm
emission maximum (in Clc1ccccc1): 462 nm

SMILES: CN1CCCc2cc3c(C(F)(F)F)cc(=O)oc3cc21
emission maximum (in C1CCCCC1): 439 nm
emission maximum (in CC#N): 510 nm
emission maximum (in CCO): 515 nm

SMILES: CC(C)(C)c1cc2ccc3cc(C(C)(C)C)cc4c3c2c(c1)c(=O)n1c4nc2c3cc(C(C)(C)C)cc4ccc5cc(C(C)(C)C)cc(c5c43)c21
emission maximum (in C1CCOC1): 523 nm
emission maximum (in CC#N): 551 nm
emission maximum (in CC(C)=O): 544 nm
emission maximum (in CCCCCC): 495 nm
emission maximum (in CCOC(C)=O): 524 nm
emission maximum (in CS(C)=O): 553 nm
emission maximum (in Cc1ccc(C)cc1): 521 nm
emission maximum (in ClC(Cl)(Cl)Cl): 520 nm
emission maximum (in ClC(Cl)Cl): 551 nm
emission maximum (in c1ccccc1): 524 nm

SMILES: COCCOCCOCCOCC(COCCOCCOCCOC)Oc1cc(/C=C/c2ccc(/C=C(\C#N)C(=O)c3ccccc3)cc2)c(OC(COCCOCCOCCOC)COCCOCCOCCOC)cc1/C=C/c1ccc(/C=C(\C#N)C(=O)c2ccccc2)cc1
emission maximum (in ClCCl): 621 nm

SMILES: Cc1ccc2nc3c(=O)[nH]c(=O)[nH]c3nc2c1C
emission maximum (in CC#N): 461 nm

SMILES: COc1ccc(/C=C/c2ccncn2)cc1
emission maximum (in ClCCl): 418 nm

SMILES: CCOC(CN1C(=O)C2=C(c3cccs3)N(CC(OCC)OCC)C(=O)C2=C1c1cccs1)OCC
emission maximum (in ClC(Cl)Cl): 557 nm

SMILES: COc1cc2c3c4c(c5ccc(C(C)(C)C)cc5c5cc(C(C)(C)C)cc(c2c(OC)c1OC)c45)=[N+]1C3=Nc2c3c4cc(OC)c(OC)c(OC)c4c4cc(C(C)(C)C)cc5c6cc(C(C)(C)C)ccc6c(c3c54)n2[B-]1(F)F
emission maximum (in Cc1ccccc1): 832 nm

SMILES: Nc1ccccc1
emission maximum (in C1CCCCC1): 323.42 nm

The next lines start with the values.

emission maximum (in ClCCl): 544 nm
SMILES: Cc1cc(-c2ccc3ccccc3c2)cc(C)[o+]1

emission maximum (in C1CCOC1): 452 nm
SMILES: O=P(c1c2ccccc2cc2ccccc12)(c1c2ccccc2cc2ccccc12)c1c2ccccc2cc2ccccc12

emission maximum (in c1cc(-c2cccc(-n3c4ccccc4c4ccccc43)c2)cc(-n2c3ccccc3c3ccccc32)c1): 446 nm
SMILES: Cc1cc(-c2nc(-c3ccccc3)nc(-c3ccccc3)n2)c(C)cc1-c1ccc2c(c1)C1(c3ccccc3-c3ccccc31)c1ccccc1N2c1ccccc1

emission maximum (in CC#N): 413 nm
emission maximum (in CO): 444 nm
emission maximum (in ClC(Cl)Cl): 410 nm
emission maximum (in c1ccccc1): 400 nm
SMILES: COc1ccc(N2C(=O)c3ccccc3NC2C(C)(C)C)cc1 (configuration not stated)

emission maximum (in ClC(Cl)Cl): 534 nm
SMILES: CCCCCCN1C(=O)c2cccc3c(-c4ccc(-c5cccs5)s4)ccc(c23)C1=O

emission maximum (in ClCCl): 515 nm
SMILES: CC(C)(C)Nc1c(-c2ccc(-c3cc(=O)cc(-c4ccccc4)o3)cc2)nc2ccccn12

emission maximum (in C1COCCO1): 381 nm
emission maximum (in CC#N): 381 nm
emission maximum (in CO): 398 nm
emission maximum (in ClCCl): 381 nm
emission maximum (in O): 406 nm
SMILES: N#Cc1nc2cnc(N)nc2n1Cc1ccccc1

emission maximum (in ClC(Cl)Cl): 417 nm
SMILES: CC(C)(C)c1ccc2c(c1)oc1nc3oc4ccc(-n5c6ccccc6c6ccccc65)cc4c3cc12

emission maximum (in ClCCl): 541 nm
SMILES: N#Cc1cc(-c2ccc(/C=C/c3ccc(N(c4ccccc4)c4ccccc4)cc3)c(C#N)c2)ccc1/C=C/c1ccc(N(c2ccccc2)c2ccccc2)cc1

emission maximum (in C1CCOC1): 387 nm
SMILES: c1cc2c3c(c1)-c1cccc4ccn(c14)B3n1ccc3cccc-2c31

emission maximum (in C1CCOC1): 444 nm
SMILES: CCCCCOc1cc2oc(=O)c3c4ccc(C#N)cc4c4ccc5cccc6c(c1)c2c3c4c56

emission maximum (in C1CCOC1): 445 nm
SMILES: C(=C(c1ccccc1)c1ccccc1)c1ccc(-c2ccc(C=C(c3ccccc3)c3ccccc3)cc2)cc1

emission maximum (in ClC(Cl)Cl): 385 nm
SMILES: c1ccc2c(-c3ccc(-n4c5ccccc5c5ccccc54)cc3)c3c(nc2c1)-c1cc2c(cc1CC3)-c1nc3ccccc3c(-c3ccc(-n4c5ccccc5c5ccccc54)cc3)c1CC2

emission maximum (in C1CCOC1): 462 nm
SMILES: CCCCCOc1ccc2c(c1)c1ccc3cccc4c5cccc6oc(=O)c2c(c65)c1c34

emission maximum (in ClCCl): 556 nm
emission maximum (in c1ccccc1): 506 nm
SMILES: CCCCN(CCCC)c1ccc(C#Cc2cc(C#Cc3cc(C(F)(F)F)cc(C(F)(F)F)c3)c(C#Cc3cc(C(F)(F)F)cc(C(F)(F)F)c3)cc2C#Cc2ccc(N(CCCC)CCCC)cc2)cc1

emission maximum (in CS(C)=O): 562 nm
emission maximum (in ClCCl): 528 nm
SMILES: CCCCCCCCCCCCN(CCCCCCCCCCCC)c1ccc2c(c1)oc(=O)c1c(=O)oc3ccccc3c12

emission maximum (in CCO): 676 nm
emission maximum (in CO): 679 nm
emission maximum (in CS(C)=O): 683 nm
emission maximum (in O): 673 nm
SMILES: CN1/C(=C/C=C(/C=C/c2sc3ccccc3[n+]2C)c2ccccc2)Sc2ccccc21

emission maximum (in ClC(Cl)Cl): 457 nm
SMILES: CC(C)n1c(=O)c2cc3ccc4cccc5ccc(c2c1=O)c3c45

emission maximum (in ClC(Cl)Cl): 397 nm
SMILES: CC(C)(C)c1cccc2c1oc1nc3oc4cc(-n5c6ccccc6c6ccccc65)ccc4c3cc12

emission maximum (in CCO): 540 nm
emission maximum (in ClCCl): 535 nm
emission maximum (in O): 557 nm
SMILES: O=Cc1ccc(-c2ccc(-c3nc4ccccc4s3)c(O)c2)s1

emission maximum (in ClC(Cl)Cl): 520.7 nm
SMILES: CC1=CC(C)=[N+]2C1=C(c1ccc(I)cc1)c1c(C)cc(C)n1[B-]21OCCO1

emission maximum (in C1CCOC1): 476 nm
SMILES: CN(C)c1ccc(C2=C(c3ccccc3)c3oc4ccccc4[n+]3[B-](F)(F)O2)cc1

emission maximum (in C1CCOC1): 424 nm
SMILES: CCCCn1c2ccc(-c3cccs3)cc2c2c1c1c3ccc(-c4cccs4)cc3n(CCCC)c1c1c3ccc(-c4cccs4)cc3n(CCCC)c21

emission maximum (in ClCCl): 635 nm
SMILES: CN(C)c1ccc(-c2cccc3nsnc23)cc1

emission maximum (in C1CCCCC1): 491 nm
emission maximum (in CC#N): 557 nm
emission maximum (in CCO): 592 nm
emission maximum (in c1ccccc1): 526 nm
SMILES: CN(C)c1ccc2c(c1)-c1ccccc1C2=O

emission maximum (in C1CCOC1): 685 nm
SMILES: F[B-]1(F)n2c(/C=C/c3ccc(C(=C(c4ccccc4)c4ccccc4)c4ccccc4)cc3)ccc2C(c2ccc(C(=C(c3ccccc3)c3ccccc3)c3ccccc3)cc2)=C2C=CC(/C=C/c3ccc(C(=C(c4ccccc4)c4ccccc4)c4ccccc4)cc3)=[N+]21

emission maximum (in C1COCCO1): 471 nm
emission maximum (in CC#N): 471 nm
emission maximum (in CCCCOCCCC): 471 nm
emission maximum (in CCOC(C)=O): 471 nm
SMILES: CC(=O)Nc1ccc2c3cccc4cccc(c5cccc1c52)c43

emission maximum (in CC1CCCO1): 468 nm
SMILES: CCCCCCOc1cc2cc(=O)oc3ccc4cccc1c4c23

Reference: the Deep4Chem optical property database
